ChEMBL document CHEMBL3611970, “Synthesis and evaluation of isatin-β-thiosemicarbazones as novel agents against antibiotic-resistant Gram-positive bacterial species” (2015)
Converted amounts (≈) assume the structure as drawn.

What was measured:
Type in all cases: functional
[1] = system: Staphylococcus aureus; assay: Antimicrobial activity against methicillin-resistant Staphylococcus aureus 309-1 clinical isolate after 16 hrs by broth microdilution method; details: 309-1, 16 h
[2] = system: Staphylococcus aureus; assay: Antimicrobial activity against methicillin-resistant Staphylococcus aureus 6281 clinical isolate after 16 hrs by broth microdilution method; details: Staphylococcus aureus, 6281, 16 h
[3] = system: Staphylococcus aureus; assay: Antimicrobial activity against methicillin-resistant Staphylococcus aureus 309-8 clinical isolate after 16 hrs by broth microdilution method; details: 309-8, 16 h
[4] = system: Pseudomonas aeruginosa; assay: Antimicrobial activity against Pseudomonas aeruginosa PAO1 after 16 hrs by broth microdilution method; details: PAO1, 16 h
[5] = system: Staphylococcus aureus; assay: Antimicrobial activity against methicillin-resistant Staphylococcus aureus Chaoyang clinical isolate after 16 hrs by broth microdilution method
[6] = system: Klebsiella pneumoniae; assay: Antimicrobial activity against Klebsiella pneumoniae KP-249 clinical isolate after 16 hrs by broth microdilution method; details: KP-249, 16 h
[7] = system: Staphylococcus aureus; assay: Antimicrobial activity against methicillin-resistant Staphylococcus aureus 8-24 clinical isolate after 16 hrs by broth microdilution method; details: 8-24, 16 h
[8] = system: Enterococcus faecalis; assay: Antimicrobial activity against Enterococcus faecalis VRE-309 after 16 hrs by broth microdilution method; details: VRE-309, 16 h
[9] = system: Enterococcus faecalis; assay: Antimicrobial activity against vancomycin-susceptible Enterococcus faecalis after 16 hrs by broth microdilution method
[10] = system: Staphylococcus aureus; assay: Antimicrobial activity against methicillin-resistant Staphylococcus aureus 309-7 clinical isolate after 16 hrs by broth microdilution method; details: 309-7, 16 h
[11] = system: Staphylococcus aureus; assay: Antimicrobial activity against methicillin-resistant Staphylococcus aureus 309-3 clinical isolate after 16 hrs by broth microdilution method; details: 309-3, 16 h
[12] = system: Staphylococcus aureus; assay: Antimicrobial activity against methicillin-resistant Staphylococcus aureus 309-6 clinical isolate after 16 hrs by broth microdilution method; details: 309-6, 16 h
[13] = system: Staphylococcus aureus; assay: Antimicrobial activity against methicillin-resistant Staphylococcus aureus 8-21 clinical isolate after 16 hrs by broth microdilution method; details: 8-21, 16 h
[14] = system: Staphylococcus aureus; assay: Antimicrobial activity against Staphylococcus aureus ATCC 6538 after 16 hrs by broth microdilution method; details: ATCC 6538, 16 h
[15] = system: Bacillus spizizenii; assay: Antimicrobial activity against Bacillus subtilis ATCC 6633 after 16 hrs by broth microdilution method; details: ATCC 6633, 16 h
[16] = system: Staphylococcus aureus; assay: Antimicrobial activity against methicillin-resistant Staphylococcus aureus 309-4 clinical isolate after 16 hrs by broth microdilution method; details: 309-4, 16 h
[17] = system: Staphylococcus aureus; assay: Antimicrobial activity against methicillin-resistant Staphylococcus aureus 6-42 clinical isolate after 16 hrs by broth microdilution method; details: 6-42, 16 h

| Structure (SMILES) | MIC [1] | MIC [2] | MIC [3] | MIC [4] | MIC [5] | MIC [6] | MIC [7] | MIC [8] | MIC [9] | MIC [10] | MIC [11] | MIC [12] | MIC [13] | MIC [14] | MIC [15] | MIC [16] | MIC [17] |
| --- | --- | --- | --- | --- | --- | --- | --- | --- | --- | --- | --- | --- | --- | --- | --- | --- | --- |
| COc1cccc(NC(=S)N/N=C2\C(=O)Nc3c(F)cccc32)c1 | 1.56 µg/mL (≈ 4.53 µM) | 3.12 µg/mL (≈ 9.06 µM) | 1.56 µg/mL (≈ 4.53 µM) | > 100 µg/mL | 1.56 µg/mL (≈ 4.53 µM) | > 100 µg/mL | 3.12 µg/mL (≈ 9.06 µM) | > 100 µg/mL | > 100 µg/mL | 1.56 µg/mL (≈ 4.53 µM) | 1.56 µg/mL (≈ 4.53 µM) | 3.12 µg/mL (≈ 9.06 µM) | 1.56 µg/mL (≈ 4.53 µM) | 3.12 µg/mL (≈ 9.06 µM) | 1.56 µg/mL (≈ 4.53 µM) | 1.56 µg/mL (≈ 4.53 µM) | 1.56 µg/mL (≈ 4.53 µM) |
| Cc1ccc(NC(=S)N/N=C2\C(=O)Nc3c(Br)cccc32)cc1 | 0.78 µg/mL (≈ 2 µM) | 3.12 µg/mL (≈ 8.01 µM) | 0.78 µg/mL (≈ 2 µM) | > 100 µg/mL | 0.39 µg/mL (≈ 1 µM) | > 100 µg/mL | 1.56 µg/mL (≈ 4.01 µM) | > 100 µg/mL | > 100 µg/mL | 0.78 µg/mL (≈ 2 µM) | 0.78 µg/mL (≈ 2 µM) | 1.56 µg/mL (≈ 4.01 µM) | 0.78 µg/mL (≈ 2 µM) | 1.56 µg/mL (≈ 4.01 µM) | ≤ 0.78 µg/mL | 0.78 µg/mL (≈ 2 µM) | 0.78 µg/mL (≈ 2 µM) |
| Cc1ccccc1NC(=S)N/N=C1\C(=O)Nc2c(Br)cccc21 | 1.56 µg/mL (≈ 4.01 µM) | 3.12 µg/mL (≈ 8.01 µM) | 1.56 µg/mL (≈ 4.01 µM) | > 100 µg/mL | 0.78 µg/mL (≈ 2 µM) | > 100 µg/mL | 1.56 µg/mL (≈ 4.01 µM) | 6.25 µg/mL (≈ 16.1 µM) | 12.5 µg/mL (≈ 32.1 µM) | 0.78 µg/mL (≈ 2 µM) | 1.56 µg/mL (≈ 4.01 µM) | 1.56 µg/mL (≈ 4.01 µM) | 1.56 µg/mL (≈ 4.01 µM) | 1.56 µg/mL (≈ 4.01 µM) | ≤ 0.78 µg/mL | 1.56 µg/mL (≈ 4.01 µM) | 0.78 µg/mL (≈ 2 µM) |
| COc1cccc(NC(=S)N/N=C2\C(=O)Nc3c(Br)cccc32)c1 | 1.56 µg/mL (≈ 3.85 µM) | 6.25 µg/mL (≈ 15.4 µM) | 3.12 µg/mL (≈ 7.7 µM) | > 100 µg/mL | 0.78 µg/mL (≈ 1.92 µM) | > 100 µg/mL | 1.56 µg/mL (≈ 3.85 µM) | > 100 µg/mL | > 100 µg/mL | 0.78 µg/mL (≈ 1.92 µM) | 3.12 µg/mL (≈ 7.7 µM) | 6.25 µg/mL (≈ 15.4 µM) | 1.56 µg/mL (≈ 3.85 µM) | 6.25 µg/mL (≈ 15.4 µM) | ≤ 0.78 µg/mL | 1.56 µg/mL (≈ 3.85 µM) | 1.56 µg/mL (≈ 3.85 µM) |
| O=C1Nc2c(Cl)cccc2/C1=N/NC(=S)Nc1cccc(Cl)c1 | 1.56 µg/mL (≈ 4.27 µM) | 1.56 µg/mL (≈ 4.27 µM) | 1.56 µg/mL (≈ 4.27 µM) | > 100 µg/mL | 0.78 µg/mL (≈ 2.14 µM) | > 100 µg/mL | 1.56 µg/mL (≈ 4.27 µM) | 1.56 µg/mL (≈ 4.27 µM) | 3.12 µg/mL (≈ 8.54 µM) | 0.78 µg/mL (≈ 2.14 µM) | 1.56 µg/mL (≈ 4.27 µM) | 3.12 µg/mL (≈ 8.54 µM) | 1.56 µg/mL (≈ 4.27 µM) | 1.56 µg/mL (≈ 4.27 µM) | ≤ 0.78 µg/mL | 0.78 µg/mL (≈ 2.14 µM) | 0.78 µg/mL (≈ 2.14 µM) |
| COc1cccc(NC(=S)N/N=C2\C(=O)Nc3c(Cl)cccc32)c1 | 1.56 µg/mL (≈ 4.32 µM) | 6.25 µg/mL (≈ 17.3 µM) | 1.56 µg/mL (≈ 4.32 µM) | > 100 µg/mL | 0.78 µg/mL (≈ 2.16 µM) | > 100 µg/mL | 1.56 µg/mL (≈ 4.32 µM) | > 100 µg/mL | > 100 µg/mL | 0.78 µg/mL (≈ 2.16 µM) | 1.56 µg/mL (≈ 4.32 µM) | 3.12 µg/mL (≈ 8.65 µM) | 1.56 µg/mL (≈ 4.32 µM) | 3.12 µg/mL (≈ 8.65 µM) | ≤ 0.78 µg/mL | 0.78 µg/mL (≈ 2.16 µM) | 0.78 µg/mL (≈ 2.16 µM) |
| O=C1Nc2c(F)cccc2/C1=N/NC(=S)Nc1cccc(Cl)c1 | 0.78 µg/mL (≈ 2.24 µM) | 1.56 µg/mL (≈ 4.47 µM) | 0.78 µg/mL (≈ 2.24 µM) | > 100 µg/mL | 0.39 µg/mL (≈ 1.12 µM) | > 100 µg/mL | 0.78 µg/mL (≈ 2.24 µM) | 1.56 µg/mL (≈ 4.47 µM) | 1.56 µg/mL (≈ 4.47 µM) | 0.39 µg/mL (≈ 1.12 µM) | 0.78 µg/mL (≈ 2.24 µM) | 1.56 µg/mL (≈ 4.47 µM) | 0.78 µg/mL (≈ 2.24 µM) | 0.78 µg/mL (≈ 2.24 µM) | ≤ 0.78 µg/mL | 0.78 µg/mL (≈ 2.24 µM) | 0.39 µg/mL (≈ 1.12 µM) |
